Laboratory results as given in the supplement of paper PMC11061612.

Experiments:
MKN1 (Gastric Carcinoma) [1] = assay: Bliss excess, mean over the matrix (fraction); higher = more synergy
How it was run: (§1)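 Cell lines in DMEM/F12 or RPMI with 10% FBS were plated in 1536-well plates, held 24 hours at 37°C, 5% CO2, then given two-drug dose matrices for 72 hours (DMSO typically 0.2%). Viability was read by CellTiter-Glo 2.0 luminescence and scaled as inhibition from 0 (vehicle wells) to 1 (blank wells). Combination Emax is the second-highest inhibition in the matrix; Bliss excess is observed combination effect minus expected EA + EB − EA·EB, EA and EB being single-agent effects.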

[2] = test system: NCI-H841 (Small Cell Lung Carcinoma); assay: as above
How it was run: as §1

MKN1 (Gastric Carcinoma) [3] = assay: combination Emax (second highest fraction inhibited in the dose matrix, 72 h); higher = more inhibition; extreme values may be limits of the assay
How it was run: as §1

[4] = test system: UACC-812 (Breast Carcinoma); assay: as above
How it was run: as §1

[5] = test system: NCI-H841 (Small Cell Lung Carcinoma); assay: as above
How it was run: as §1

KP-N-YN (Neuroblastoma) = assay: as above
How it was run: as §1

[6] = test system: OACp4C (Esophageal Adenocarcinoma); assay: as above
How it was run: as §1

[7] = test system: KYSE-140 (Esophageal Squamous Cell Carcinoma); assay: as above
How it was run: as §1

[8] = test system: A253 (Head and Neck Carcinoma); assay: as above
How it was run: as §1

[9] = test system: JVM-2 (B-Cell Non-Hodgkin's Lymphoma); assay: as above
How it was run: as §1

[10] = test system: Jurkat (T-Lymphoblastic Leukemia); assay: as above
How it was run: as §1

[11] = test system: JIMT-1 (Breast Carcinoma); assay: as above
How it was run: as §1

A204 (Rhabdomyosarcoma) = assay: as above
How it was run: as §1

A101D (Melanoma) = assay: as above
How it was run: as §1

[12] = test system: NCI-H716 (Colorectal Carcinoma); assay: as above
How it was run: as §1

[13] = test system: ESO26 (Esophageal Adenocarcinoma); assay: as above
How it was run: as §1
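For Bliss excess, mean over the matrix in this document: after 72 h of two-drug dosing.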

Structure (SMILES) | Bliss excess (MKN1 (Gastric Carcinoma) [1]) | Bliss excess [2] | combination Emax (MKN1 (Gastric Carcinoma) [3]) | combination Emax [4] | combination Emax [5] | combination Emax (KP-N-YN (Neuroblastoma)) | combination Emax [6] | combination Emax [7] | combination Emax [8] | combination Emax [9] | combination Emax [10] | combination Emax [11] | combination Emax (A204 (Rhabdomyosarcoma)) | combination Emax (A101D (Melanoma)) | combination Emax [12] | combination Emax [13]
CN(CCO)CC[C@H](CSc1ccccc1)Nc1ccc(S(=O)(=O)NC(=O)c2ccc(N3CCC([C@@H](O)c4ccccc4-c4ccc(Cl)cc4)CC3)cc2)cc1S(=O)(=O)C(F)(F)F [AZD4320] + CC(=O)O[C@H]1C(=O)[C@@]2(C)[C@H]([C@H](OC(=O)c3ccccc3)[C@]3(O)C[C@H](OC(=O)[C@H](O)[C@@H](NC(=O)c4ccccc4)c4ccccc4)C(C)=C1C3(C)C)[C@]1(OC(C)=O)CO[C@@H]1C[C@@H]2O [Paclitaxel] (first compound max 1 µM, 7x7, partner max 3 µM) | 0.0566 | 0.0423 | 0.91 | 0.566 | 0.968 | – | – | – | – | – | – | – | – | – | – | –
CN(CCO)CC[C@H](CSc1ccccc1)Nc1ccc(S(=O)(=O)NC(=O)c2ccc(N3CCC([C@@H](O)c4ccccc4-c4ccc(Cl)cc4)CC3)cc2)cc1S(=O)(=O)C(F)(F)F [AZD4320] + Nc1ccn([C@@H]2O[C@H](CO)[C@@H](O)C2(F)F)c(=O)n1 [Gemcitabine] (first compound max 1 µM, 7x7, partner max 0.3 µM) | 0.0005 | -0.0317 | 0.759 | 0.635 | 0.322 | – | – | – | – | – | – | – | – | – | – | –
Cc1cc2ncnn2cc1Nc1ncc2c(n1)n(C1CCOCC1)c(=O)n2C [AZD7648] + COc1cc([C@@H]2c3cc4c(cc3[C@@H](O[C@@H]3O[C@@H]5CO[C@@H](C)O[C@H]5[C@H](O)[C@H]3O)[C@H]3COC(=O)[C@H]23)OCO4)cc(OC)c1O [Etoposide] (first compound max 10 µM, 7x7, partner max 10 µM) | 0.0865 | 0.0261 | 0.922 | 0.528 | 0.441 | 0.677 | – | – | – | – | – | – | – | – | – | –
Cc1nc(Nc2ncc(C(=O)Nc3c(C)cccc3Cl)s2)cc(N2CCN(CCO)CC2)n1 [Dasatinib] + CC(=O)Nc1cccc(-n2c(=O)n(C3CC3)c(=O)c3c(Nc4ccc(I)cc4F)n(C)c(=O)c(C)c32)c1 [Trametinib] (first compound max 2 µM, 7x7, partner max 1 µM) | -0.0121 | -0.0356 | 0.656 | – | 0.199 | 0.361 | 0.995 | 0.522 | 0.414 | 0.742 | 0.157 | 0.779 | 0.512 | 0.688 | 0.472 | 0.464
COc1cc2ncnc(Nc3ccc(F)c(Cl)c3)c2cc1OCCCN1CCOCC1 [Gefitinib] + CC(C)n1c(=O)n(C)c2cnc3cc(F)c(-c4ccc(OCCCN5CCCCC5)nc4)cc3c21 [AZD1390] (first compound max 10 µM, 7x7, partner max 0.3 µM) | -0.0669 | -0.0837 | 0.339 | 0.24 | 0.176 | 0.318 | 0.572 | 0.534 | 0.196 | 0.528 | 0.199 | 0.491 | 0.139 | 0.267 | 0.361 | 0.571
N#Cc1cnc(Nc2cc(NC[C@H]3CNCCO3)c(C(F)(F)F)cn2)cn1 [SRA737] + C=CCn1c(=O)c2cnc(Nc3ccc(N4CCN(C)CC4)cc3)nc2n1-c1cccc(C(C)(C)O)n1 [AZD1775] (first compound max 10 µM, partner max 1 µM) | 0.0971 | 0.0292 | 0.916 | 0.511 | 0.514 | – | – | – | – | – | – | – | – | – | – | –
N#Cc1cnc(Nc2cc(NC[C@H]3CNCCO3)c(C(F)(F)F)cn2)cn1 [SRA737] + CCc1c2c(nc3ccc(O)cc13)-c1cc3c(c(=O)n1C2)COC(=O)[C@]3(O)CC [SN-38] (first compound max 10 µM, 7x7, partner max 0.3 µM) | 0.0303 | 0.044 | 0.866 | 0.475 | 0.62 | – | – | – | – | – | – | – | – | – | – | –
N#Cc1cnc(Nc2cc(NC[C@H]3CNCCO3)c(C(F)(F)F)cn2)cn1 [SRA737] + Nc1ccn([C@@H]2O[C@H](CO)[C@@H](O)C2(F)F)c(=O)n1 [Gemcitabine] (first compound max 10 µM, 7x7, partner max 0.3 µM) | 0.0588 | 0.0776 | 0.867 | 0.592 | 0.818 | – | – | – | – | – | – | – | – | – | – | –
N#Cc1cnc(Nc2cc(NC[C@H]3CNCCO3)c(C(F)(F)F)cn2)cn1 [SRA737] + O=c1[nH]cc(F)c(=O)[nH]1 [5-Fluorouracil] (first compound max 10 µM, 7x7, partner max 20 µM) | 0.0221 | -0.0189 | 0.69 | 0.323 | 0.183 | – | – | – | – | – | – | – | – | – | – | –
C[C@@H](c1ccc2nccn2c1)n1nnc2ncc(-c3cnn(C)c3)nc21 [Savolitinib] + CC1(C)CCC(CN2CCN(c3ccc(C(=O)NS(=O)(=O)c4ccc(NCC5CCOCC5)c([N+](=O)[O-])c4)c(Oc4cnc5[nH]ccc5c4)c3)CC2)=C(c2ccc(Cl)cc2)C1 [Venetoclax] (first compound max 1 µM, 7x7, partner max 1 µM) | -0.0402 | -0.0333 | 0.0845 | 0.105 | 0.201 | 0.569 | 0.204 | 0.305 | 0.092 | 0.141 | 0.188 | 0.164 | 0.0862 | 0.2 | 0.251 | 0.0719
C[C@@H](c1ccc2nccn2c1)n1nnc2ncc(-c3cnn(C)c3)nc21 [Savolitinib] + Cc1c2c(nn1C)CSCc1cc(n(C)n1)CSc1cc(c3ccccc3c1)OCCCc1c(C(=O)O)n(C)c3c-2c(Cl)ccc13 [AZD5991] (first compound max 1 µM, 7x7, partner max 1 µM) | -0.0366 | -0.0178 | 0.111 | 0.627 | 0.266 | 0.324 | 0.283 | 0.317 | 0.38 | 0.181 | 0.575 | 0.213 | 0.167 | 0.386 | 0.0581 | 0.169
